Structures are written as SMILES.

For assay [1], the target named is T1, SMARCA2-HiBiT (Homo sapiens, UniProt P51531).
T1 construct: SMARCA2-HiBiT knock-in Hela monoclonal cell (CS302366); host or cells: HeLa monoclonal knock-in line (CRISPR HiBiT knock-in at the endogenous locus, heterozygous)
The assay can be described thus: SMARCA2 HiBiT degradation assay in HeLa cells. The assay is classed as cell-based. The settings on record: 18 hours incubation; for DC50: read-out: HeLa_HiBit-SM2 DC50; for Dmax: HeLa, read-out: HeLa-HiBit-SM2 Dmax (%). An outline of the steps:
(§1)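 HeLa monoclonal lines with heterozygous HiBiT knock-in were seeded at 2500 cells/well in EMEM with 10% FBS and treated with compound for 18 h at 37 °C. Remaining tagged protein was measured by Nano-Glo HiBiT lytic luminescence after 30–60 min at RT, and values came from curve fitting.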

Assay [2] concerns the target T2, SMARCA4-HiBiT (Homo sapiens, UniProt P51532).
T2 construct: SMARCA4-HiBiT knock-in Hela monoclonal cell (CS3023226); host or cells: HeLa monoclonal knock-in line (CRISPR HiBiT knock-in at the endogenous locus, heterozygous)
Description: SMARCA4 HiBiT degradation assay in HeLa cells. The assay is classed as cell-based. The settings on record: 18 hours incubation; for DC50: read-out: HeLa-HiBit-SM4 DC50; for Dmax: HeLa, read-out: HeLa-HiBit-SM4 Dmax (%). In outline: as §1

T2 sequence (P51532 whole entry): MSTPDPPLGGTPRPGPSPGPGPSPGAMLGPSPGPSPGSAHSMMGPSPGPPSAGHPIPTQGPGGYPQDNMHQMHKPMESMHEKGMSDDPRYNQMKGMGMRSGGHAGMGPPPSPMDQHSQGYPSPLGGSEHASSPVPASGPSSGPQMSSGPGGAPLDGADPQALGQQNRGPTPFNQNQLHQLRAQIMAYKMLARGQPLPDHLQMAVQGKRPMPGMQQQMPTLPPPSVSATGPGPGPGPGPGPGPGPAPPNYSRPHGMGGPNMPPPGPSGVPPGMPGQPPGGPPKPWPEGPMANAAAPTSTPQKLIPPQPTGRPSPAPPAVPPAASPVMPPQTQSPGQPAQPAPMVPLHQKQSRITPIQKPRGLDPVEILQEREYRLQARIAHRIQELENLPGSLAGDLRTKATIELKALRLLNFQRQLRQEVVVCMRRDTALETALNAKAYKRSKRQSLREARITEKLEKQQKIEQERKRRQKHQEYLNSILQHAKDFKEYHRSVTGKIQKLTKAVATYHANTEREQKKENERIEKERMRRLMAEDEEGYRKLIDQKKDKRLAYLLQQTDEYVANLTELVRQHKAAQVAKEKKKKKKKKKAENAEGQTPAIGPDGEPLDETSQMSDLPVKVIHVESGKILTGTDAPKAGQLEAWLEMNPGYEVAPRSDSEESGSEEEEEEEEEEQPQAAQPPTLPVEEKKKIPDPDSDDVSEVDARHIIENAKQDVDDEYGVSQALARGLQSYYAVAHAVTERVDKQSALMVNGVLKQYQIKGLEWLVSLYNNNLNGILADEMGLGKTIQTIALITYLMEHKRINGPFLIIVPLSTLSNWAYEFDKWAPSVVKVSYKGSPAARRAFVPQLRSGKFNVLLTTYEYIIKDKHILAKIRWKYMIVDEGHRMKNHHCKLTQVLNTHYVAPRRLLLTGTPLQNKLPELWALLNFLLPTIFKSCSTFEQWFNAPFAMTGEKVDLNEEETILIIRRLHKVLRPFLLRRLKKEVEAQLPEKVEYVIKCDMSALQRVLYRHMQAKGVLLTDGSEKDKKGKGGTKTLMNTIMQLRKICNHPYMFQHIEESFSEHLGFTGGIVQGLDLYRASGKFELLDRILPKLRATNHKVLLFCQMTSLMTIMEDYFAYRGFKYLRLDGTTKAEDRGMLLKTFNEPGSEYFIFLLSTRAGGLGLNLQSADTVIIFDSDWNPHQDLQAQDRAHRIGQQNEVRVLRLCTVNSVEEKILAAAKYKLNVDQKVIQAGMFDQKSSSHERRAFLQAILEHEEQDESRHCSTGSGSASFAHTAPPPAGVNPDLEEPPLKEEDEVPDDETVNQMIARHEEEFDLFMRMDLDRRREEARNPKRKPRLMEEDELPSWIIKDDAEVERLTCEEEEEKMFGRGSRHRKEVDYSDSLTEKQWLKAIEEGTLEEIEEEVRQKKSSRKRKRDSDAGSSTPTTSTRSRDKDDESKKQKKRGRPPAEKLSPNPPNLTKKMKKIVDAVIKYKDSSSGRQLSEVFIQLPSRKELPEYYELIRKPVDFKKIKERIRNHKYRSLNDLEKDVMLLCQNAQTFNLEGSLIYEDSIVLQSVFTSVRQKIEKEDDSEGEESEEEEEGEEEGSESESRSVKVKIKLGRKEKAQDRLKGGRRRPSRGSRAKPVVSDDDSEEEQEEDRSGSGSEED
T1 sequence (P51531 whole entry): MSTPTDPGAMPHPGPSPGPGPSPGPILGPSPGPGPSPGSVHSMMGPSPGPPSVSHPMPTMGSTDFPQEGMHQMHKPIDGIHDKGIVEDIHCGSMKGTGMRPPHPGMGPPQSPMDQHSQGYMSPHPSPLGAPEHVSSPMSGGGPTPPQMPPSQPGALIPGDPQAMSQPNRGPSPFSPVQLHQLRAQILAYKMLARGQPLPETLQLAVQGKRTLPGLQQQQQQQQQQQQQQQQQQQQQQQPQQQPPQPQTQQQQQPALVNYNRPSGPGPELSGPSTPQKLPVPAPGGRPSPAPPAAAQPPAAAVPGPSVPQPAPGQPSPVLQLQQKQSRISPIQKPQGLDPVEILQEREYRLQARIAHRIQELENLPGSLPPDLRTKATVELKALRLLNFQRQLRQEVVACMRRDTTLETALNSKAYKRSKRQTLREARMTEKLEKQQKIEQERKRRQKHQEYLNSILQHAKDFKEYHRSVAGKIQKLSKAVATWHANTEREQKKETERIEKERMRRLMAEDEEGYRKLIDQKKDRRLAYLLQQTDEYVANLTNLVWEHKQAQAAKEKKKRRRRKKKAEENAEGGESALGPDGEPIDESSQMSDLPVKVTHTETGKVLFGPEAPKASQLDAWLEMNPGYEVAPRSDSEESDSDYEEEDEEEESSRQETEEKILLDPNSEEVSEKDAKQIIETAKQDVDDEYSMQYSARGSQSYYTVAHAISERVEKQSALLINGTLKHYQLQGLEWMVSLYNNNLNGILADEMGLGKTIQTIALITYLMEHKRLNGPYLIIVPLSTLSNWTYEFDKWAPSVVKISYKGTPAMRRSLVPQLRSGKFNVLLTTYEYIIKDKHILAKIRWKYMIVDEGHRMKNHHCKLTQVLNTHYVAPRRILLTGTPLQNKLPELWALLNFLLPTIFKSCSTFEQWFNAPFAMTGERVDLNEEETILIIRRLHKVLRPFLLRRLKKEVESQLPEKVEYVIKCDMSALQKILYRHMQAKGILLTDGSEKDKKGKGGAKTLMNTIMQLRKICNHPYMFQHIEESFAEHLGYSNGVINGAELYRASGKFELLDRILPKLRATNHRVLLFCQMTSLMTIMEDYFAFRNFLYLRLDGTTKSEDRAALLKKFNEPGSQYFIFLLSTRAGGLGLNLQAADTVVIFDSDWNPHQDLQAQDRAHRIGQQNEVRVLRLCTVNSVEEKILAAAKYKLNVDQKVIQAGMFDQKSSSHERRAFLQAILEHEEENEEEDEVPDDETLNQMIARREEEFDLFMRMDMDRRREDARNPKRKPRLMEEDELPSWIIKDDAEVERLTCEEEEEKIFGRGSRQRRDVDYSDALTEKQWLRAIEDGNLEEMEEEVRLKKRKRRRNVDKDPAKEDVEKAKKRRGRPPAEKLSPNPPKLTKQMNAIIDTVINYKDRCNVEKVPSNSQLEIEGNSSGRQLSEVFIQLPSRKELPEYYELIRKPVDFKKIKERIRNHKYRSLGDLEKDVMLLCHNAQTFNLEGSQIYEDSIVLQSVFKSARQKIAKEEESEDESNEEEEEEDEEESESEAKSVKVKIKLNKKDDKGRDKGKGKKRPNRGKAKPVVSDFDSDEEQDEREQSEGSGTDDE

`O=C1CCC(N2C(=O)c3ccc(N4Cc5cnc(N6C[C@@H]7[C@@H](CN8CCN9c%10cc(-c%11ccccc%11O)nnc%10NC[C@H]9C8)[C@@H]7C6)nc5C4)cc3C2=O)C(=O)N1` (stereo partly drawn) [Example 58, 2-(2,6-dioxopiperidin-3-yl)-5-(2-((1R,5S,6s)-6-(((S)-2-(2-hydroxyphenyl)-5,6,6a,7,9,10-hexahydro-8H-pyrazino[1′,2′:4,5]pyrazino[2,3-c]pyridazin-8-yl)methyl)-3-azabicyclo[3.1.0]hexan-3-yl)-5,7-dihydro-6H-pyrrolo[3,4-d]pyrimidin-6-yl) isoindoline-1,3-dione]: the DC50 is < 10 nM in assay [1] and 10 to 100 nM in assay [2]. Also, the Dmax in assay [1] was 50 to 75%; in assay [2] it was ≤ 50%.
Taken in the same sequence, the figures for `C[C@@H]1C[C@H](CN2C[C@@H]3[C@H](C2)[C@H]3CN2CCN3c4cc(-c5ccccc5O)nnc4NC[C@H]3C2)CCN1c1ccc2c(c1)C(=O)N(C1CCC(=O)NC1=O)C2=O` (stereo partly drawn) [Example 183, 2-(2,6-dioxopiperidin-3-yl)-5-[(2R,4R)-4-[[(1S,5R)-6-[[(10S)-4-(2-hydroxyphenyl)-1,5,6,8,12-pentazatricyclo[8.4.0.02,7]tetradeca-2,4,6-trien-12-yl]methyl]-3-azabicyclo[3.1.0]hexan-3-yl]methyl]-2-methylpiperidin-1-yl] isoindole-1,3-dione] were < 10 nM, < 10 nM, > 85% and 75 to 85%.
As for `O=C1CCC(N2C(=O)c3ccc(N4CCN(CC5CCN(C(=O)N6CCN7c8cc(-c9ccccc9O)nnc8NC[C@H]7C6)CC5)CC4)cc3C2=O)C(=O)N1` (stereo partly drawn) [Example 142, 2-(2,6-dioxopiperidin-3-yl)-5-(4-((1-((S)-2-(2-hydroxyphenyl)-6,6a,7,8,9,10-hexahydro-5H-pyrazino[1′,2′:4,5]pyrazino[2,3-c]pyridazine-8-carbonyl)piperidin-4-yl)methyl)piperazin-1-yl)isoindoline-1,3-dione], in assay [1], the half-maximal degradation concentration (DC50) is < 10 nM and the Dmax is 75 to 85%. In assay [2], the DC50 was in the range of 10 to 100 nM and the Dmax lay in the range of 50 to 75%.
Regarding `O=C1CCC(N2Cc3cc(OCCN4CCC(CN5CCN6c7cc(-c8ccccc8O)nnc7NC[C@H]6C5)CC4)ccc3C2=O)C(=O)N1` (stereo partly drawn) [Example 207, 3-(5-(2-(4-(((S)-2-(2-hydroxyphenyl)-5,6,6a,7,9,10-hexahydro-8H-pyrazino[1′,2′:4,5]pyrazino[2,3-c]pyridazin-8-yl)methyl)piperidin-1-yl)ethoxy)-1-oxoisoindolin-2-yl)piperidine-2,6-dione], in assay [1], the DC50 is < 10 nM and the Dmax fell in the range of 50 to 75%. In assay [2], the DC50 lay in the range of 10 to 100 nM and the Dmax is ≤ 50%.
Taken in the same sequence, the figures for `O=C1CCC(N2Cc3ccc(N4CCC(CN5CCC(OC(=O)N6CCN7c8cc(-c9ccccc9O)nnc8NC[C@H]7C6)CC5)CC4)cc3C2=O)C(=O)N1` (stereo partly drawn) [Example 85, l-((l-(2-(2,6-dioxopiperidin-3-yl)-3-oxoisoindolin-5-yl)piperidin-4-yl)methyl)piperidin-4-yl (6aS)-2-(2-hydroxyphenyl)-5,6,6a,7,9,10-hexahydro-8H-pyrazino[1′,2′:4,5]pyrazino[2,3-c]pyridazine-8-carboxylate] were < 10 nM, > 85%, < 10 nM and 75 to 85%.
With `O=C1CCC(N2C(=O)c3cccc(N4CCC(OCCN5CCC(N6CCN7c8cc(-c9ccccc9O)nnc8NC[C@H]7C6)CC5)CC4)c3C2=O)C(=O)N1` (stereo partly drawn) [Example 67, 2-(2,6-dioxopiperidin-3-yl)-4-(4-(2-(4-((S)-2-(2-hydroxyphenyl)-5,6,6a,7,9,10-hexahydro-8H-pyrazino[1′,2′:4,5]pyrazino[2,3-c]pyridazin-8-yl)piperidin-1-yl)ethoxy)piperidin-1-yl)isoindoline-1,3-dione], in assay [1], the 50% degradation concentration (DC50) was < 10 nM and the Dmax was 50 to 75%. For the same molecule, in assay [2], the 50% degradation concentration (DC50) was < 10 nM and the Dmax lay within 50 to 75%.
With `O=C1CCC(N2C(=O)c3ccc(N4CCC(CN5CCN(C(=O)N6CCN7c8cc(-c9ccccc9O)nnc8NC[C@H]7C6)CC5)C(F)(F)C4)cc3C2=O)C(=O)N1` (stereo partly drawn) [Example 195, 5-[3,3-difluoro-4-[[4-[(10S)-4-(2-hydroxyphenyl)-1,5,6,8,12-pentazatricyclo[8.4.0.02,7]tetradeca-2(7),3,5-trien-12-carbonyl]piperazin-1-yl]methyl]piperidin-1-yl]-2-(2,6-dioxopiperidin-3-yl) isoindole-1,3-dione], the figures for the DC50 in assay [1] and in assay [2] were < 10 nM and 10 to 100 nM, respectively. In addition, the Dmax in assay [1] and in assay [2] was 50 to 75% in each case.
As for `CC1CN(CCCC2CCN(c3cccc4c3C(=O)N(C3CCC(=O)NC3=O)C4=O)CC2)CCC1N1CCN2c3cc(-c4ccccc4O)nnc3NC[C@H]2C1` (stereo partly drawn) [Example 124, 2-(2,6-dioxopiperidin-3-yl)-4-(4-(3-(4-((S)-2-(2-hydroxyphenyl)-5,6,6a,7,9,10-hexahydro-811-pyrazino[1′,2′:4,5]pyrazino[2,3-c]pyridazin-8-yl)-3-methylpiperidin-1-yl)propyl)piperidin-1-yl) isoindoline-1,3-dione], in assay [1], the DC50 is < 10 nM and the Dmax lay in the range of 50 to 75%. In assay [2], the DC50 was < 10 nM and the maximal degradation (Dmax) lay within 50 to 75%.
`O=C1CCC(N2C(=O)c3ccc(N4CC[C@@H](CN5C[C@@H]6[C@H](C5)[C@H]6CN5CCN6c7cc(-c8ccccc8O)nnc7NC[C@H]6C5)[C@H](F)C4)cc3C2=O)C(=O)N1` (stereo partly drawn) [Example 201, 2-(2,6-dioxopiperidin-3-yl)-5-[(3S,4S)-3-fluoro-4-[[(1S,5R)-6-[[(10S)-4-(2-hydroxyphenyl)-1,5,6,8,12-pentazatricyclo [8.4.0.02,7]tetradeca-2(7),3,5-trien-12-yl]methyl]-3-azabicyclo[3.1.0]hexan-3-yl]methyl]piperidin-1-yl]isoindole-1,3-dione]: in assay [1], the “HeLa-HiBit-SM2 Dmax (%)” value is “A (A=Dmax>85%)” and the DC50 was < 10 nM. Also, in assay [2], the “HeLa-HiBit-SM4 Dmax (%)” value was “A (A=Dmax>85%)” and the DC50 is < 10 nM.
`O=C1CCC(N2C(=O)c3ccc(CN4CCC(CN5CCC(CN6CCN7c8cc(-c9ccccc9O)nnc8NC[C@H]7C6)CC5)CC4)cc3C2=O)C(=O)N1` (stereo partly drawn) [Example 187, 2-(2,6-dioxopiperidin-3-yl)-5-[[4-[[4-[[(10S)-4-(2-hydroxyphenyl)-1,5,6,8,12-pentazatricyclo[8.4.0.02,7]tetradeca-2,4,6-trien-12-yl]methyl]piperidin-1-yl]methyl]piperidin-1-yl]methyl]isoindole-1,3-dione]: in assay [1], the DC50 was < 10 nM and the Dmax lay in the range of 50 to 75%. Moreover, in assay [2], the half-maximal degradation concentration (DC50) was < 10 nM and the Dmax lay in the range of 50 to 75%.
Regarding `O=C1CCC(n2ccc3cc(N4CCC(CN5CCC(N6CCN7c8cc(-c9ccccc9O)nnc8NC[C@H]7C6)CC5)CC4)ccc3c2=O)C(=O)N1` (stereo partly drawn) [Example 26, 3-(6-(4-((4-((S)-2-(2-hydroxyphenyl)-5,6,6a,7,9,10-hexahydro-8H-pyrazino [1′,2′:4,5]pyrazino[2,3-c]pyridazin-8-yl)piperidin-1-yl)methyl)piperidin-1-yl)-1-oxoisoquinolin-2(1H)-yl)piperidine-2,6-dione], in assay [1], the DC50 was < 10 nM and the Dmax was > 85%. For the same molecule, in assay [2], the DC50 was < 10 nM and the Dmax was > 85%.
With `CC1CC(CN2CCC(CN3CCN4c5cc(-c6ccccc6O)nnc5NC[C@H]4C3)CC2)CCN1c1ccc2c(c1)C(=O)N(C1CCC(=O)NC1=O)C2=O` (stereo partly drawn) [Example 148, 2-(2,6-dioxopiperidin-3-yl)-5-(4-((4-(((S)-2-(2-hydroxyphenyl)-5,6,6a,7,9,10-hexahydro-8H-pyrazino[1′,2′:4,5]pyrazino[2,3-c]pyridazin-8-yl)methyl)piperidin-1-yl)methyl)-2-methylpiperidin-1-yl)isoindoline-1,3-dione], in assay [1], the DC50 was < 10 nM and the Dmax is > 85%. Besides, in assay [2], the 50% degradation concentration (DC50) is < 10 nM and the Dmax is > 85%.
`O=C1CCC(N2C(=O)c3ccc(N4CCC(CN5CCC(CN6CCN7c8cc(-c9ccccc9O)nnc8NC[C@H]7C6)CC5CO)CC4)cc3C2=O)C(=O)N1` (stereo partly drawn) [Example 236, 2-(2,6-dioxopiperidin-3-yl)-5-(4-((2-(hydroxymethyl)-4-(((S)-2-(2-hydroxyphenyl)-5,6,6a,7,9,10-hexahydro-8H-pyrazino[1′,2′:4,5]pyrazino[2,3-c]pyridazin-8-yl)methyl)piperidin-1-yl)methyl)piperidin-1-yl) isoindoline-1,3-dione]: the 50% degradation concentration (DC50) in assay [1] and in assay [2] was < 10 nM each time. Moreover, the Dmax is > 85% in assay [1] and 75 to 85% in assay [2].
With `CC1(CN2C[C@@H]3[C@@H](CN4CCN5c6cc(-c7ccccc7O)nnc6NC[C@H]5C4)[C@@H]3C2)CN(c2ccc3c(c2)C(=O)N(C2CCC(=O)NC2=O)C3=O)CCO1` (stereo partly drawn) [Example 59, 2-(2,6-dioxopiperidin-3-yl)-5-(2-(((1R,5S,6s)-6-(((S)-2-(2-hydroxyphenyl)-5,6,6a,7,9,10-hexahydro-8H-pyrazino[1′,2′:4,5]pyrazino[2,3-c]pyridazin-8-yl)methyl)-3-azabicyclo[3.1.0]hexan-3-yl)methyl)-2-methylmorpholino)isoindoline-1,3-dione], the DC50 in assay [1] is < 10 nM; in assay [2], 10 to 100 nM. Further, the Dmax in assay [1] and in assay [2] was 75 to 85% in each case.

These data come from patent US12448389B2, “BRM targeting compounds and associated methods of use” (Prelude Therapeutics Incorporated, priority 2020, dated 2025).
